Results on 4 compounds are retold here after patent US20260000781A1, “FC CONJUGATES INCLUDING AN INHIBITOR OF CD73 AND USES THEREOF” (Cidara Therapeutics, Inc., priority 2022, published 2026).

Like-named read-outs stand apart in the source and are kept apart here.

The test system of the experiment is human PBMCs inhibited by AMP. Put plainly: PBMC activation assay by flow cytometry (rescue of AMP suppressed cells). The class given is cell-based. The procedure:
(§1) Human PBMCs (StemCell Technologies cat no. 70025) prepared in ImmunoCult™—XF T cell Expansion medium (StemCell Technologies cat no. 10981) were seeded at 1×10^5 cells per well (100 μL of 1×10^6 cells/mL) in the presence or absence of T cell activator anti-CD3/CD28/CD2 (StemCell Technologies cat no. 10970) in 96 well round bottom plates (Corning cat no. 3788). Ten-fold serial dilutions of each test article was prepared, resulting in final concentrations ranging from 0.1 nM-10,000 nM. 50 μL of test article was added to the cells, followed by 50 μL of adenosine 5′ monophosphate (AMP; MilliporeSigma cat no. A1752) for a final concentration of 30 μM. Plates were incubated at 37° C. with 5% CO2 for 72 h. After 72 h the cells were centrifuged for 5 min at 300×g at 4° C. then washed twice with cell staining buffer (BioLegend cat no. 420201). Cells were incubated with Fc block (Unlabeled, Clone: 3070; BD Biosciences cat no. 5642220) for 10 min at 4° C. Cells were stained with anti-human CD25 antibody, clone 2A3, PE (StemCell Technologies cat no. 60153PE) for 20 min at 4° C. protected from light. Cells were washed twice with cell staining buffer and resuspended in 200 μL of cell staining buffer. Samples were acquired using a Cytek Northern Lights flow cytometry system. CD25^+ by flow cytometry was used as the readout to measure PBMC activation after AMP inhibition. Samples were analyzed using FlowJo version 10. Percent rescue […] was plotted using GraphPad Prism Version 6 and EC50 values were generated using nonlinear regression analysis for total PBMCs or CD8^+ T cells using CD25^+ as read-out or granzyme B^+.
as §1, with “test article were prepared, resulting” for “test article was prepared, resulting”, “nonlinear regression analysis.” for “nonlinear regression analysis for total PBMCs or CD8^+ T cells using CD25^+ as read-out or granzyme B^+.”
Human PBMCs (StemCell Technologies cat no. 70025) prepared in ImmunoCult™—XF T cell Expansion medium (StemCell Technologies cat no. 10981) were seeded at 1×10^5 cells per well (100 μL of 1×10^6 cells/mL) in the presence or absence of T cell activator anti-CD3/CD28/CD2 (StemCell Technologies cat no. 10970) in 96 well round bottom plates (Corning cat no. 3788). Ten-fold serial dilutions of each test article was prepared in medium (ranging from 4,000 nM-0.4 nM), resulting in final concentrations ranging from 1,000 nM-0.1 nM. 50 μL of test article was added to the cells, followed by 50 μL of adenosine 5′ monophosphate (AMP; MilliporeSigma cat no. A1752) for a final concentration of 30 μM. […]
Background: Flow cytometry measures light scatter and fluorescence of single cells or particles in a stream.

[1] abbreviates: read-out: 30 μM AMP EC50, CD25+ as a read-out, total PBMCs, 72 h.
[2] abbreviates: 30 μM AMP, 72 h, read-out: CD8+CD25+ EC50.
The mark [3] stands for this setting: 30 μM AMP, 72 h, read-out: CD8+granzyme B+ EC50.

Turning to `C[C@H](Nc1cc(Cl)nc2c1cnn2[C@@H]1O[C@H](COP(=O)(O)CP(=O)(O)O)[C@@H](O)[C@H]1O)c1ccccc1F` [AB680], the EC50 (in general, the midpoint of the concentration-response curve) by setting is: (Homo sapiens, PBMC, read-out: 30 μM AMP EC50 [nM], CD25+ as a read-out, total PBMCs, 72 h) 9 nM; (Homo sapiens, PBMC, read-out: EC50 [nM] (median, n = 3) CD4+CD25+, 30 μM AMP, 72 h) 10 nM; (Homo sapiens, PBMC, read-out: EC50 [nM] (median, n = 3) CD8+CD25+, 30 μM AMP, 72 h) 10 nM; (Homo sapiens, PBMC, read-out: EC50 [nM] (median, n = 3) CD8+Granzyme B+, 30 μM AMP, 72 h) 47 nM; (Homo sapiens, PBMC, 30 μM AMP, 72 h, CD4+CD25+, CD8+CD25+, CD8+Granzyme B+, read-out: EC50 values (range over the read-outs)) 10 to 54 nM; (Homo sapiens, PBMC, 30 μM AMP, 72 h, read-out: CD8+CD25+ EC50) 8.1 nM. For the same compound, under “Homo sapiens, PBMC, 30 μM AMP, 72 h, read-out: CD8+granzyme B+ EC50”, the EC50 worked out at 1.4 nM.

As to `COC[C@](CO)(OC[C@H]1O[C@@H](n2ncc3c(NC4CCCC4)nc(Cl)nc32)[C@H](O)[C@@H]1O)P(=O)(O)O` [OP5244], the EC50 under setting [1] was 8 nM and the EC50 (read-out: 30 μM AMP EC50, batches of Conjugate 172c, CD25+ as a read-out, 72 h (Table 13)) came out at 17 nM.

Turning to `COC[C@](CO)(OC[C@H]1O[C@@H](n2ncc3c(NC4CCCC4)nc(Cl)nc32)[C@H](O)[C@@H]1O)P(=O)(O)O` [OP-5244], the EC50 under setting [2] came to 5.9 nM; the EC50 under setting [3] was 1.4 nM; the EC50 (read-out: EC50 [nM] (median, n = 3) CD4+CD25+, 30 μM AMP, 72 h) came out at 7 nM; the EC50 (read-out: EC50 [nM] (median, n = 3) CD8+CD25+, 30 μM AMP, 72 h) is 7 nM; the EC50 (read-out: EC50 [nM] (median, n = 3) CD8+Granzyme B+, 30 μM AMP, 72 h) was 8 nM.

As for `O=P(O)(O)COC[C@H]1O[C@@H](n2ncc3c(N4CC5(CCc6ccccc65)C4)nc(Cl)nc32)[C@H](O)[C@@H]1O` [SHR170008], the EC50 under setting [2] is 598 nM, the EC50 under setting [3] turned out to be 212 nM and the EC50 under setting [1] was determined as 374 nM.
